Like-named read-outs stand apart in the source and are kept apart here.
Assays:
human AR [1] = target: T1, human AR (Homo sapiens, UniProt P10275); assay: cell-based; conditions: read-out: AR Binding Ki
T1 construct: expressed in transfected cells; host or cells: CV-1 cells (African green monkey kidney fibroblasts)
T1 sequence (P10275 1-920): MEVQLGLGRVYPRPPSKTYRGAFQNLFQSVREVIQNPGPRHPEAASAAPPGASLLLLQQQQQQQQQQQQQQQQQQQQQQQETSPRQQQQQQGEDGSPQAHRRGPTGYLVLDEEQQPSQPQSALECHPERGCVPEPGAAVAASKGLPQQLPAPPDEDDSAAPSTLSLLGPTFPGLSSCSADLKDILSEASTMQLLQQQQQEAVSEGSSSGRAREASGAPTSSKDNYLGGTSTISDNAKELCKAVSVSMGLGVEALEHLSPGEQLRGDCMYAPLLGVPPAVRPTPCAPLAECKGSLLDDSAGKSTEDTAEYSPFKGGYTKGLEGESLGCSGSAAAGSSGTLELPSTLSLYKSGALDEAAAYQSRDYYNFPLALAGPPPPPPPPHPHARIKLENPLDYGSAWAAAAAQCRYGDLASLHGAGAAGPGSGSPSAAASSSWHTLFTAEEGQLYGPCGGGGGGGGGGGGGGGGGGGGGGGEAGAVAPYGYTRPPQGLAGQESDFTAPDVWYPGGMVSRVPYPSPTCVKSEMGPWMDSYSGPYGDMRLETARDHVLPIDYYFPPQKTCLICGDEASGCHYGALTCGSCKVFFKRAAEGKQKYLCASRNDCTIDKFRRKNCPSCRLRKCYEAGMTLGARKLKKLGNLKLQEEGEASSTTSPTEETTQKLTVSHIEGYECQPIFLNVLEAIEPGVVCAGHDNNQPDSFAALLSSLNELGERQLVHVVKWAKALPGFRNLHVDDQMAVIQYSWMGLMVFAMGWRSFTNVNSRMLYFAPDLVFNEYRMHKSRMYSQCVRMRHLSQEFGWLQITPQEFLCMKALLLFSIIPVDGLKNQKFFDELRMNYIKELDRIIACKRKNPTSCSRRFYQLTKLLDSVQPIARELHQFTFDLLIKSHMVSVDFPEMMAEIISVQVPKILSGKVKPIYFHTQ

human AR [2] = target: T1, human AR; assay: cell-based; assay type: cell-based; conditions: for AR Antagonist CV-1 Cells Efficacy: antagonist mode, DHT at its EC50, % of maximal inhibition, na = not active; for EC50: read-out: AR Agonist CV-1 Cells Potency; for IC50: read-out: AR Antagonist CV-1 Cells Potency; for AR activity profile (in words): summary of Tables 1 and 2
Excerpt: The co-transfection assay provides a method for identifying functional agonists and partial agonists which mimic, or antagonists which inhibit, the effect of native hormones, and quantifying their activity for responsive IR proteins. In this regard, the co-transfection assay mimics an in vivo system in the laboratory. Importantly, activity in the co-transfection assay correlates very well with known in vivo activity, such that the co-transfection assay functions as a qualitative and quantitative predictor of a tested compounds in vivo pharmacology. See, e.g., T. Berger et al. 41 J. Steroid Biochem. Molec.
CV-1 cells (African green monkey kidney fibroblasts) were cultured in the presence of Dulbecco's Modified Eagle Medium (DMEM) supplemented with 10% charcoal resin-stripped fetal bovine serum then transferred to 96-well microtiter plates one day prior to transfection.
The reporter plasmid, MTV-LUC, contains the cDNA for firefly luciferase (LUC) under control of the mouse mammary tumor virus (MTV) long terminal repeat, a conditional promoter containing an androgen response element. See e.g., Berger et al. supra. In addition, pRS-β-Gal, coding for constitutive expression of E. coli β-galactosidase (β-Gal), was included as an internal control for evaluation of transfection efficiency and compound toxicity.
Three to four replicates were used for each sample.
After 40 hours, the cells were washed with PBS, lysed with a Triton X-100-based buffer and assayed for LUC and β-Gal activities using a luminometer or spectrophotometer, respectively. For each replicate, the normalized response (NR) was calculated as:
where β-Gal rate=β-Gal•1×10^−5/β-Gal incubation time.

[3] = test system: immature castrated male rat; assay: Immature castrated male rat model with testosterone silastic implant, ventral prostate and seminal vesicle weights; assay type: in vivo; conditions: 3 days; for ED50: Rattus norvegicus, 72 h, oral, four-parameter logistic fit, number of experiments in parentheses
Excerpt: The activity of selected compounds of the present invention as AR antagonists was *~ investigated in an immature castrated male rat model. A recognized test of the antiandrogen activity of a given compound, as described in L. G. Hershberger et al., 83 Proc. Soc. Exptl. […] Similar approaches have been used in the rat and in hamsters. […] Dermatol.
The basis of this assay is the fact that male sexual accessory organs, such as the prostate and seminal vesicles, play an important role in reproductive function. […] See F. Labrie et al., 16 Clin. Invest. […] However, this is not a major pathway since, in both animals and humans, castration without concomitant adrenalectomy leads to almost complete involution of the prostate and seminal vesicles. […] See M. C. […] Since the male sex organs are the tissues most responsive to modulation by androgen activity, this model is used to determine the androgen-dependent growth of the sex accessory organs in immature castrated rats.
Immature male rats (50-60 g, 21 day-old Sprague-Dawley, Harlan) were castrated under metofane anesthesia. […] As a negative control, a group of castrated animals received empty 10 mm silastic implants. Animal groups were dosed for 3 days by oral gavage as follows:
At the end of the 3-day treatment, the animals were sacrificed, and the ventral prostates and seminal vesicles were collected and weighed. Organ weight data were normalized to body weight of each animal and expressed as mg/100 g body weight. Results were analyzed by analysis of variance followed by the Dunnett's test. Data were transformed to comply with the normality and variance homogeneity criteria required to utilize the analysis of variance and Dunnett's test. The following data transformations were used for the ventral prostate and seminal vesicle: square root and power 0.7 respectively. Thereafter, the data were fitted to a four-parameter logistic equation and potencies derived from the fitted estimates. The same data transformations were used for the equation-fitting phase of the data analysis.
The gain and loss of sexual organ weights reflect the changes of cell number (DNA content) and cell mass (protein content), depending upon the serum androgen concentrations. […] Therefore, measurement of organ wet weights is sufficient to indicate the bioactivity of androgens and androgen antagonists.

[4] = agonist mode, percent maximal response relative to reference agonist DHT, na = not active (efficacy < 10 and potency > 10,000)

Row | SMILES | Ki (human AR [1]) [nM] | AR Agonist CV-1 Cells Efficacy (human AR [2]) [%] | AR Antagonist CV-1 Cells Efficacy (human AR [2]) [%] | EC50 (human AR [2]) [nM] | IC50 (human AR [2]) [nM] | further results
1 | CC1=CC(C)(C)Nc2cc3[nH]c(=O)c(F)c(C(F)(F)F)c3cc21 [Compound 111, 7-Fluoro-1,2-dihydro-2,2,4-trimethyl-6-trifluoromethyl-8-pyridono[5,6-g]quinoline] | 12 | 16 ± 2 | 53 ± 5 | 227 ± 59 | 43 ± 8 | AR activity profile (in words) (human AR [2]): mixed AR agonists/antagonists
2 | CC1(C)CCc2cc3c(C(F)(F)F)cc(=O)[nH]c3cc2N1O [Compound 118, 1,2,3,4-Tetrahydro-1-hydroxy-2,2-dimethyl-6-trifluoromethyl-8-pyridono[5,6-g]quinoline] | 86 ± 29 |  | 70 ± 2 |  | 482 ± 179 | 
3 | Cc1c2c(cc3c(C(F)(F)F)c(F)c(=O)[nH]c13)C(C)CC(C)(C)N2 (centres unmarked) [Compound 115, 7-Fluoro-1,2,3,4-tetrahydro-2,2,4,10-tetramethyl-6-trifluoromethyl-8-pyridono[5,6-g]quinoline] | 107 |  | 87 ± 1 |  |  | 
4 | CCC1CCN([N+](=O)[O-])c2cc3[nH]c(=O)cc(C(F)(F)F)c3cc21 (racemic) [Compound 127, (R/S)-4-Ethyl-1,2,3,4-tetrahydro-1-nitro-6-(trifluoromethyl)-8-pyridono[5,6-g]quinoline] | 136 | 56 ± 12 |  | 85 ± 36 |  | 
5 | Cn1c(=O)c(F)c(C(F)(F)F)c2cc3c(cc21)NC(C)(C)CC3 [Compound 107, 7-Fluoro-1,2,3,4-tetrahydro-2,2,9-trimethyl-6-trifluoromethyl-8-pyridono[5,6-g]quinoline] | 110 ± 42 |  | 83 ± 3 |  | 38 ± 10 | 
6 | CC1CC(C)(C)n2oc(=O)c3c4[nH]c(=O)cc(C(F)(F)F)c4cc1c32 (centres unmarked) [Compound 113, 1,10-[1,3-dihydro-3-oxo-(2,1-isoxazolyl)]-1,2,3,4-tetrahydro-2,2,4,10-tetramethyl-6-trifluoromethyl-8-pyridono[5,6-g]quinoline] | 10 |  | 48 |  |  | EC50 (human AR [2]; agonist mode, na = not active (efficacy < 10 and potency > 10,000)): 245 nM; AR Agonist CV-1 Cells Efficacy (human AR [2]; [4]): 31%; AR activity profile (in words) (human AR [2]): mixed AR agonists/antagonists
7 | CC1(C)CCc2cc3c(C(F)(F)F)cc(=O)[nH]c3cc2N1 [LG120907, 1,2,3,4-Tetrahydro-2,2-dimethyl-6-trifluoromethyl-8-pyridono[5,6-g]quinoline] |  |  |  |  |  | ED50 ([3]; read-out: Potency (ED50) Weighted Average ± SE, Seminal Vesicle Weight): 19.2 ± 2.8 mg/kg; ED50 ([3]; read-out: Potency (ED50) Weighted Average ± SE, Ventral Prostate Weight): 18.3 ± 4.8 mg/kg; Seminal Vesicles weight ([3]; T implant + 0.1 mg/kg oral): 32.9 ± 1.2 (5) mg/100 g body weight; Ventral Prostate weight ([3]; T implant + 0.1 mg/kg oral): 78.5 ± 2.0 (5) mg/100 g body weight; Seminal Vesicles weight ([3]; T implant + 1 mg/kg oral): 28.9 ± 1.4 (5) mg/100 g body weight; Ventral Prostate weight ([3]; T implant + 1 mg/kg oral): 57.3 ± 1.8 (5) mg/100 g body weight; Seminal Vesicles weight ([3]; T implant + 3 mg/kg oral): 31.7 ± 2.9 (5) mg/100 g body weight; Ventral Prostate weight ([3]; T implant + 3 mg/kg oral): 66.4 ± 5.6 (5) mg/100 g body weight; Seminal Vesicles weight ([3]; T implant + 10 mg/kg oral): 28.2 ± 1.8 (5) mg/100 g body weight; Ventral Prostate weight ([3]; T implant + 10 mg/kg oral): 59.9 ± 2.7 (5) mg/100 g body weight; Seminal Vesicles weight ([3]; T implant + 30 mg/kg oral): 16.5 ± 0.8 (5) mg/100 g body weight; Ventral Prostate weight ([3]; T implant + 30 mg/kg oral): 47.4 ± 2.9 (5) mg/100 g body weight; Seminal Vesicles weight ([3]; T implant + 100 mg/kg oral): 10.4 ± 1.0 (5) mg/100 g body weight; Ventral Prostate weight ([3]; T implant + 100 mg/kg oral): 20.2 ± 2.0 (5) mg/100 g body weight
8 | CCC1CCN(C(=O)C(F)(F)F)c2cc3[nH]c(=O)cc(C(F)(F)F)c3cc21 (racemic) [Compound 122, (R/S)-4-Ethyl-1,2,3,4-tetrahydro-1-(trifluoroacetyl)-6-(trifluoromethyl)-8-pyridono[5,6-g]quinoline] | 7 ± 2 |  |  | 3 |  | AR Agonist CV-1 Cells Efficacy (human AR [2]; [4]): 100 ± 17%
9 | CC1(C)CCc2cc3c(C(F)F)c(F)c(=O)[nH]c3cc2N1 [Compound 106, 6-Difluoromethyl-7-fluoro-1,2,3,4-tetrahydro-2,2-dimethyl-8-pyridono[5,6-g]quinoline] | 73 ± 37 |  | 78 ± 3 |  | 52 ± 14 | 
10 | Cn1c(=O)cc(C(F)(F)F)c2cc3c(cc21)N(O)C(C)(C)CC3 [Compound 119, 1,2,3,4-Tetrahydro-1-hydroxy-2,2,9-trimethyl-6-trifluoromethyl-8-pyridono[5,6-g]quinoline] | 74 ± 29 |  | 40 ± 12 |  | 1570 ± 1050 | 
11 | CCC1(CC)CCc2cc3c(C(F)(F)F)c(F)c(=O)[nH]c3cc2N1 [Compound 120, 2,2-Diethyl-7-fluoro-1,2,3,4-tetrahydro-6-trifluoromethyl-8-pyridono[5,6-g]quinoline] | 156 ± 24 | 18 ± 3 | 61 ± 5 | 171 ± 95 | 17 ± 2 | 
12 | CCC1CCN(C(C)=O)c2cc3[nH]c(=O)cc(C(F)(F)F)c3cc21 (racemic) [Compound 123, (R/S)-1-Acetyl-4-ethyl-1,2,3,4-tetrahydro-6-(trifluoromethyl)-8-pyridono[5,6-g]quinoline] | 87 | 91 ± 17 |  | 31 ± 2 |  | 

— US6534516B1, “Androgen receptor modulator compounds and methods” (Ligand Pharmaceuticals Incorporated, priority 1996, dated 2003)
